Source: US5100785A, “Polycyclic ether antibiotic” (Pfizer Inc., priority 1984, dated 1992)

How the values were obtained:
[1] = tested on: rumen fluid; assay: in vitro rumen technique, propionic acid production; conditions: 39° C., about 16 hours; for increase in propionic acid production: 10 mcg/ml., separate experiment with CP-70,228; for increase in the production of propionic acid over control: 10 micrograms per milliliter, experiment with UK-58,852
[2] = tested on: Streptococcus faecalis; assay: in vitro antibacterial activity (MIC), Streptococcus faecalis; type: cell-based; conditions: strain 02A006; 24 hours
[3] = tested on: Streptococcus pyogenes; assay: in vitro antibacterial activity (MIC), Streptococcus pyogenes; type: cell-based; conditions: strain 020303; 24 hours
[4] = tested on: Enterobacteriaceae aerogenes; assay: in vitro antibacterial activity (MIC), Enterobacteriaceae aerogenes; type: cell-based; conditions: gram-negative; 24 hours
Description: (§1) In Table I, below, the results of in vitro tests are summarized. For this test each organism is innoculated in a series of test tubes containing nutrient medium and varying concentrations of Antibiotic UK-58,852 to determine the minimal concentration of the compound in mcg./ml. which inhibits the growth of the organism over a period of 24 hours (MIC).

[5] = tested on: Pseudomonas aeruginosa; assay: in vitro antibacterial activity (MIC), Pseudomonas aeruginosa; type: cell-based; conditions: gram-negative; 24 hours
Description: as §1

[6] = tested on: Staphylococcus aureus; assay: in vitro antibacterial activity (MIC), Staphylococcus aureus; type: cell-based; conditions: 24 hours
Description: as §1

[7] = tested on: Serratia marcescens; assay: in vitro antibacterial activity (MIC), Serratia marcescens; type: cell-based; conditions: gram-negative; 24 hours
Description: as §1

[8] = tested on: Klebsiella pneumoniae; assay: in vitro antibacterial activity (MIC), Klebsiella pneumoniae; type: cell-based; conditions: gram-negative; 24 hours
Description: as §1

[9] = tested on: Escherischia coli; assay: in vitro antibacterial activity (MIC), Escherischia coli; type: cell-based; conditions: gram-negative; 24 hours
Description: as §1

[10] = tested on: Actinobacillus pleuropneumoniae; assay: in vitro antibacterial activity (MIC), Actinobacillus pleuropneumoniae; type: cell-based; conditions: 24 hours
[11] = tested on: Fusobacterium necrophorum; assay: in vitro antibacterial activity (MIC), Fusobacterium necrophorum; type: cell-based; conditions: strain 84C004; 24 hours
[12] = tested on: Actinomyces pyogenes; assay: in vitro antibacterial activity (MIC), Actinomyces pyogenes; type: cell-based; conditions: strain 14D011; 24 hours
[13] = tested on: Bacteroides fragilis; assay: in vitro antibacterial activity (MIC), Bacteroides fragilis; type: cell-based; conditions: strain 78C024; 24 hours
[14] = tested on: Treponema hyodysenteriae; assay: in vitro antibacterial activity (MIC), Treponema hyodysenteriae; type: cell-based; conditions: strain 94A007; 24 hours
[15] = tested on: Pasteurella multocida; assay: in vitro antibacterial activity (MIC), Pasteurella multocida; type: cell-based; conditions: strain 59A006; 24 hours
[16] = tested on: Clostridium perfringens; type: cell-based; conditions: strain 10A009; 24 hours
[17] = tested on: Eimeria tenella; assay: in vivo anticoccidial activity in chickens, Eimeria tenella; conditions: for AVERAGE DEGREE OF INFECTION / WEIGHT GAIN (PERCENT): chickens, after six days
[18] = tested on: Eimeria acervulina; assay: in vivo anticoccidial activity in chickens, Eimeria acervulina; conditions: for AVERAGE DEGREE OF INFECTION / WEIGHT GAIN (PERCENT): chickens, after five days
[19] = tested on: E. necatrix; assay: in vivo anticoccidial activity in chickens, E. necatrix; conditions: diet of chickens, 25 to 150 ppm
[20] = tested on: E. maxima; assay: in vivo anticoccidial activity in chickens, E. maxima; conditions: diet of chickens, 25 to 150 ppm
[21] = tested on: E. brunetti; assay: in vivo anticoccidial activity in chickens, E. brunetti; conditions: diet of chickens, 25 to 150 ppm
[22] = diet of chickens, 25 to 150 ppm

CC[C@@H](C(=O)[C@@H](C)[C@@H](O)[C@H](C)[C@@H]1O[C@@H]([C@@H](CC)C(=O)O)CC[C@@H]1C)[C@H]1O[C@]2(C=C[C@@H](O)[C@]3(CC[C@@](C)([C@H]4CC[C@](O)(CC)[C@H](C)O4)O3)O2)[C@H](C)C[C@@H]1C [salinomycin, reference compound]
increase in propionic acid production [1]: about 40% | increase in the production of propionic acid over control [1]: ~88%

COC1CCC(OC2CC(C3OC(C)(OC)C(C)CC3C)OC2C2(C)CCC(C3(C)CCC4(CC(OC)C(C)C(C(C)C5OC(O)(CC(=O)[O-])C(C)C(OC6CCC(OC)C(C)O6)C5OC)O4)O3)O2)OC1C.[Na+] (centres unmarked) [CP-70,828 Sodium Salt]
MIC [2]: > 50 µg/mL | MIC [3]: 3.12 µg/mL | MIC [4]: > 50 µg/mL | MIC [5]: > 50 µg/mL | MIC ([6]; strain 01A005): 25 µg/mL | MIC ([6]; strain 01A052): 25 µg/mL | MIC ([6]; strain 01A110): 25 µg/mL | MIC ([6]; strain 01A400): 25 µg/mL | MIC [7]: > 50 µg/mL | MIC [8]: > 50 µg/mL | MIC [9]: > 50 µg/mL

COC1CCC(OC2CC(C3OC(C)(O)C(C)CC3C)OC2C2(C)CCC(C3(C)CCC4(CC(O)C(C)C(C(C)C5OC(O)(CC(=O)[O-])C(C)C(OC6CCC(OC)C(C)O6)C5OC)O4)O3)O2)OC1C.[Na+] (centres unmarked) [UK-58,852 (sodium salt)]
MIC [2]: > 50 µg/mL | MIC ([10]; strain 44B004): > 25 µg/mL | MIC [11]: > 25 µg/mL | MIC [3]: 0.05 µg/mL | MIC [12]: 0.08 µg/mL | MIC [4]: > 50 µg/mL | MIC [13]: 0.10 µg/mL | MIC [5]: > 50 µg/mL | MIC ([6]; strain 01A005): 3.12 µg/mL | MIC ([6]; strain 01A052): 3.12 µg/mL | MIC ([6]; strain 01A110): 3.12 µg/mL | MIC ([6]; strain 01A400): 6.25 µg/mL | MIC [14]: 0.39 µg/mL | MIC [7]: > 50 µg/mL | MIC [15]: > 200 µg/mL | MIC [16]: 0.79 µg/mL | MIC [8]: > 50 µg/mL | MIC [9]: > 50 µg/mL

COC1CCC(OC2CC(C3OC(C)(OC)C(C)CC3C)OC2C2(C)CCC(C3(C)CCC4(CC(O)C(C)C(C(C)C5OC(O)(CC(=O)O)C(C)C(OC6CCC(OC)C(C)O6)C5OC)O4)O3)O2)OC1C (centres unmarked) [CP-70,228]
increase in propionic acid production [1]: about 30% | AVERAGE DEGREE OF INFECTION ([17]; 25 ppm in feed): 2.7 | WEIGHT GAIN (PERCENT) ([17]; 25 ppm in feed): 80% | AVERAGE DEGREE OF INFECTION ([17]; 50 ppm in feed): 1.3 | WEIGHT GAIN (PERCENT) ([17]; 50 ppm in feed): 103% | AVERAGE DEGREE OF INFECTION ([17]; 75 ppm in feed): 0.3 | WEIGHT GAIN (PERCENT) ([17]; 75 ppm in feed): 63% | AVERAGE DEGREE OF INFECTION ([17]; 100 ppm in feed): 0.0 | WEIGHT GAIN (PERCENT) ([17]; 100 ppm in feed): 95% | AVERAGE DEGREE OF INFECTION ([18]; 25 ppm in feed): 1.2 | WEIGHT GAIN (PERCENT) ([18]; 25 ppm in feed): 40% | AVERAGE DEGREE OF INFECTION ([18]; 50 ppm in feed): 0.0 | WEIGHT GAIN (PERCENT) ([18]; 50 ppm in feed): 70% | AVERAGE DEGREE OF INFECTION ([18]; 75 ppm in feed): 0.0 | WEIGHT GAIN (PERCENT) ([18]; 75 ppm in feed): 100% | AVERAGE DEGREE OF INFECTION ([18]; 100 ppm in feed): 0.0 | WEIGHT GAIN (PERCENT) ([18]; 100 ppm in feed): 100%

COC1CCC(OC2CC(C3OC(C)(OC)C(C)CC3C)OC2C2(C)CCC(C3(C)CCC4(CC(O)C(C)C(C(C)C5OC(O)(CC(=O)[O-])C(C)C(OC6CCC(OC)C(C)O6)C5OC)O4)O3)O2)OC1C.[Na+] (centres unmarked) [CP-70,228 Sodium Salt]
MIC [2]: 50 µg/mL | MIC ([10]; strain 54B004): > 100 µg/mL | MIC [11]: > 100 µg/mL | MIC [3]: 0.10 µg/mL | MIC [12]: 0.34 µg/mL | MIC [4]: > 50 µg/mL | MIC [13]: 12.5 µg/mL | MIC [5]: > 50 µg/mL | MIC ([6]; strain 01A005): 3.12 µg/mL | MIC ([6]; strain 01A052): 3.12 µg/mL | MIC ([6]; strain 01A110): 3.12 µg/mL | MIC ([6]; strain 01A400): 6.25 µg/mL | MIC [14]: 1.58 µg/mL | MIC [7]: > 50 µg/mL | MIC [15]: > 100 µg/mL | MIC [8]: > 50 µg/mL | MIC [9]: > 50 µg/mL

COC1CCC(OC2CC(C3OC(C)(O)C(C)CC3C)OC2C2(C)CCC(C3(C)CCC4(CC(O)C(C)C(C(C)C5OC(O)(CC(=O)O)C(C)C(OC6CCC(OC)C(C)O6)C5OC)O4)O3)O2)OC1C (centres unmarked) [UK-58,852]
increase in the production of propionic acid over control [1]: about 93% | controlling infections due to E. necatrix [19]: effective | controlling infections due to E. maxima [20]: effective | AVERAGE DEGREE OF INFECTION ([17]; 25 ppm in feed): 0.0 | WEIGHT GAIN (PERCENT) ([17]; 25 ppm in feed): 93% | AVERAGE DEGREE OF INFECTION ([17]; 50 ppm in feed): 0.0 | WEIGHT GAIN (PERCENT) ([17]; 50 ppm in feed): 45% | AVERAGE DEGREE OF INFECTION ([17]; 75 ppm in feed): 0.0 | WEIGHT GAIN (PERCENT) ([17]; 75 ppm in feed): 28% | AVERAGE DEGREE OF INFECTION ([17]; 100 ppm in feed): 0.0 | WEIGHT GAIN (PERCENT) ([17]; 100 ppm in feed): 8% | AVERAGE DEGREE OF INFECTION ([17]; 125 ppm in feed): 0.0 | WEIGHT GAIN (PERCENT) ([17]; 125 ppm in feed): 4% | AVERAGE DEGREE OF INFECTION ([17]; 150 ppm in feed): 0.0 | WEIGHT GAIN (PERCENT) ([17]; 150 ppm in feed): 0% | controlling infections due to Eimeria tenella [17, 22]: effective | controlling infections due to E. brunetti [21]: effective | AVERAGE DEGREE OF INFECTION ([18]; 25 ppm in feed): 0.0 | WEIGHT GAIN (PERCENT) ([18]; 25 ppm in feed): 98% | AVERAGE DEGREE OF INFECTION ([18]; 50 ppm in feed): 0.0 | WEIGHT GAIN (PERCENT) ([18]; 50 ppm in feed): 62% | AVERAGE DEGREE OF INFECTION ([18]; 75 ppm in feed): 0.0 | WEIGHT GAIN (PERCENT) ([18]; 75 ppm in feed): 0% | AVERAGE DEGREE OF INFECTION ([18]; 100 ppm in feed): 0.0 | WEIGHT GAIN (PERCENT) ([18]; 100 ppm in feed): 23% | AVERAGE DEGREE OF INFECTION ([18]; 125 ppm in feed): 0.0 | WEIGHT GAIN (PERCENT) ([18]; 125 ppm in feed): 0% | AVERAGE DEGREE OF INFECTION ([18]; 150 ppm in feed): 0.0 | WEIGHT GAIN (PERCENT) ([18]; 150 ppm in feed): 0% | controlling infections due to E. acervulina [18, 22]: effective
